Earlier results, collected in patent US4127523A, “Novel undecapeptides, intermediates therefor, and compositions and methods employing said undecapeptides” (priority 1977, dated 1978).

Tests used:
[1] = system: partially purified brain opiate receptor sites; conditions: literature, Bradbury et al.
[2] = literature
[3] = injected directly into the brain of the rat; Belluzzi et al.

H-Tyr-Gly-Gly-Phe-Met-OH [methionine enkephalin]
binding to partially purified brain opiate receptor sites [1]: binds stereo-specifically | activity in bioassays for opiate activity [2]: very active | analgesic activity [3]: only weak analgesic agent of short duration
